Experimental data: paper PMC5761851, “Application of a phenotypic drug discovery strategy to identify biological and chemical starting points for inhibition of TSLP production in lung epithelial cells” (PLoS ONE, 2018)
Where “and” joins values, the source holds several entries; their conditions need not be identical. Equal entries are not always repeated. Where two headings read alike, the source gives them in different places.

Columns and labels:
LAD2 cells degranulation = experiment: Syk dependent LAD2 cells degranulation; type: cell-based, human
Description: Normal human bronchial epithelial cells (NHBE) (Lonza CC-2540,) corresponding to 2 different lots derived from 2 human healthy donors, henceforth referred to as donors #1 and #2, were purchased from Lonza, who provided the cells after obtaining permission for use in research applications by informed consent. Cells were cultured in 5% CO2 at 37°C according to the manufacturer´s instructions using Lonza´s Bronchial Epithelial Basal Medium (BEBM) (CC-3171) supplemented with Lonza´s Bronchial Epithelial Cell Growth Medium bullet kit (BEGM) (CC-4175), and grown in collagen coated T-75 and T-175 tissue culture flasks as required (Becton Dickinson 356485 and 356487). Subculturing after trypsinization and amplification was performed using Lonza´s reagent pack subculture reagents (CC-5034) following the manufacturer´s instructions. CHO-K1 and THP-1 cells were purchased from the ATCC through LGC standards (ATCC CCL-61 and TIB-202 respectively). The LAD2 cell line is a human mast cell line established at the National Institutes of Health (Bethesda, Maryland, U.S.).
Quantification of enzymatic p38 activity and p38-dependent TNF production in THP-1 cells was performed as previously described. Enzymatic Syk kinase activity assays and Syk dependent LAD2 cells degranulation assays were performed as previously described. PI3Kδ dependent pAkt phosphorylation in macrophage colony-stimulating factor (M-CSF) stimulated THP-1 cells was measured as previously described.

CHO-K1 cells = experiment: CHO-K1 viability (ATPlite); type: cell-based
Description: The viability of NHBE and CHO-K1 cells was quantified using ATP as an indirect read out of the potential cytotoxicity of the compounds. […] Plates were shaken and covered with aluminium foil for 25 min. Luminescence was measured in an Envision reader (Perkin Elmer). Evaluation of viability in CHO-K1 cells was used as an internal compound cytotoxicity standard across cellular assays. […] The plates were incubated for 24 h at 37°C in 5% CO2. After the incubation period, the culture medium was removed and washed with 100 μl of DPBS. Test compounds were dissolved and serially diluted in 100% DMSO. A final 1/100 dilution of each concentration was performed using F12 culture medium with 0.5% FBS. A volume of 100 μl culture medium containing the compounds or 1% DMSO (for control wells) was added to the wells containing the cells and the plate was incubated again 24h. After 24h of compound exposure, cells were washed with DPBS. Then, 100 μl of PBS were added, followed by the addition of 100 μl of ATPlite™ reagent. The plate was shaken for 25 minutes using a microtiter plate shaker. Luminescence was measured using a Luminoskan Ascent luminometer (Thermo Fisher Scientific).
For CHO-K1 viability assays, a standard curve of cells was included in the plate. Luminescence values versus cell number were plotted and the data adjusted to a linear equation. Luminescence values of the samples were interpolated to obtain number of cells. IC50 values were obtained by non-linear regression using Activity Base software (IDBS) and a four-parameter log equation.

[1] = tested on: TSLP production in NHBE cells; experiment: TSLP HTRF assay (TSLP production in poly I:C / IL-4 stimulated NHBE cells); type: cell-based, human
Description: For dose response curves determinations, stocks of test compounds at a concentration of 1.33x10^-3 M in DMSO were sequentially diluted at 1:4 dilution steps before further 1/50 dilution in BEBM medium containing 1x ITS and 0.1% BSA. For the highest 4 μM concentration test compounds were resuspended in DMSO at a concentration of 2.5x10^-3 M and diluted 1/25 in BEBM medium containing 1x ITS and 0.1% BSA before adding 1 μl to the wells containing the cells.
All subsequent steps were automated using a Sciclone® G3 workstation (Perkin Elmer) with a Twister™ II robot (Perkin Elmer). […] 1 μl of test compound solution prepared at 25x concentration was added to the wells containing NHBE cells. The plates were then incubated during 90 minutes at 37°C, 5% CO2, 90% humidity before adding poly I:C (Invivogen HMW Tirl-pic-5) and human IL-4 (Peprotech 200–04) stimulus in 4 μl of BEBM medium containing 1x ITS, 0.1% BSA and 0.1% DMSO using a Multidrop™. […] Cells were then incubated for 24h in the presence of test compounds and stimulus at 37°C, 5% CO2 and 90% humidity conditions. After the 24h incubation period the plates were transferred to a CyBi®-Well platform (CyBio AG) to collect 10 μl of the supernatants which were transferred to a new plate. TSLP levels in the supernatant were determined using a homogeneous Time-Resolved Fluorescence (HTRF) assay custom developed by Cisbio. The assay was based in the use of a donor dye (europium cryptate) coupled to a monoclonal anti-TSLP antibody and an acceptor dye (d2) coupled to a second polyclonal anti-TSLP antibody. […] 10 μl of the resulting solution was then used to determine TSLP levels as described above.
The standard curve was built with eight points prepared in ITS/BSA in BEBM medium without supplements, starting at 700 pg/ml and diluted 1:2, with medium alone being zero TSLP. Fitting model corresponded to equation 100 of Excel fit software. Data from the primary phenotypic screen was visualized using Vortex (Dotmatics). […] For compound selection the maximum inhibition of the two individual duplicate values was taken into account. Dose response confirmation was performed at single point in the 2 donors tested. 9 point curves were run starting at 4 μM concentration by doing serial 1:4 dilutions in cells derived from both donors.

Syk = Syk (Homo sapiens, UniProt P43405); experiment: Enzymatic Syk kinase activity assay; type: biochemical
[2] = tested on: TSLP mRNA levels in NHBE cells; experiment: TSLP mRNA real-time PCR (qPCR) in NHBE cells; type: cell-based, human; set-up: TSLP mRNA upregulation (% versus control) / % Inhibition of mRNA: dose or concentration left out as unconfirmed
[3] = tested on: TBK1/IKKɛ, PDK-1, Aurora B, ERK8, MARK, NUAK1, MLK, c-Kit, CDK2/CyclinE, Chk1, GSK-3β, PKA, KDR, T-Fyn and PCK; set-up: method as in PMID 19307177; conditions: read-out: IC50 on BX795 targets within the pharmacological range; cited from earlier work
[4] = Homo sapiens, LAD2, geometric mean, read-out: Activity in reference cell based assay (IC50, μM) (95% CI) LAD2 cells degranulation
[5] = Homo sapiens, LAD2, individual values, read-out: Cellular activity (IC50, mM) LAD2 cells degranulation
[6] = individual values, read-out: Cellular activity (IC50, mM) LAD2 cells degranulation
[7] = Homo sapiens, NHBE, 24 h, NHBE cells donor #1, poly I:C / IL-4, 24h, geometric mean, read-out: Inhibition of TSLP protein production (IC50, μM) (95% CI)
[8] = individual values, donor #1, read-out: Inhibition of TSLP production in NHBE (IC50)
[9] = geometric mean, read-out: Activity in reference biochemical assay (IC50, μM) (95% CI) Syk
[10] = individual values, read-out: Biochemical activity (IC50, mM) (Syk)
[11] = Cricetulus griseus, CHO-K1, geometric mean, read-out: Inhibition of CHO viability (IC50, μM) (95% CI)
[12] = individual values, read-out: Inhibition of CHO viability (IC50 mM)

IC50 (LAD2 cells degranulation; [4]) [µM] | IC50 (LAD2 cells degranulation; [5]) [µM] | IC50 (LAD2 cells degranulation; [6]) [µM] | IC50 [1, 7] [µM] | IC50 [1, 8] | IC50 (Syk; [9]) [µM] | IC50 (Syk; [10]) | SMILES | further results
0.118 | 0.107 | 0.131 | 0.253 | 0.376 µM and 0.251 µM and 0.172 µM | 0.022 | 0.025 µM and 0.021 µM | Cn1cc(-c2cccc(-c3cnc(N)c(C(=O)NC4C5CC6CC4CC(O)(C6)C5)n3)c2)cn1 (stereo not drawn) [compound 12] | Inhibition of CHO viability % Inhibition ± SD at 3.75 μM (CHO-K1 cells; 3.75 μM): 19 % ± 1; Inhibition of CHO viability % at 3.75 micromolar (CHO-K1 cells; individual values, 3.75 micromolar): 20.7% and 17.8% and 20.2% and 20.8%
0.26 | 0.313 | 0.217 | 1.14 | 1.45 µM and 1.79 µM and 0.56 µM | 0.066 | 0.062 µM and 0.071 µM | Nc1ncc(-c2cccc(-c3cccnc3)c2)nc1C(=O)NC1C2CC3CC1CC(O)(C3)C2 (stereo not drawn) [compound 11] | IC50 (CHO-K1 cells; [11]): 7.85 µM; IC50 (CHO-K1 cells; Cricetulus griseus, CHO-K1, individual values, read-out: Inhibition of CHO viability (IC50 mM)): 8.33 µM; IC50 (CHO-K1 cells; [12]): 8.4 µM and 7.19 µM and 7.56 µM
0.182 | 0.183 | 0.181 | 0.302 | 0.584 µM and 0.2 µM and 0.237 µM | – | 0.024 µM and 0.022 µM | CCn1cc(-c2cccc(-c3cnc(N)c(C(=O)NC4C5CC6CC4CC(O)(C6)C5)n3)c2)cn1 (stereo not drawn) [compound 9] | IC50 (CHO-K1 cells; [11]): 7 µM; IC50 (CHO-K1 cells; [12]): 8.21 µM and 7.68 µM and 4.44 µM and 9.37 µM and 6.42 µM
– | – | – | 0.19 | 0.365 µM and 0.164 µM and 0.116 µM | 0.334 | 0.397 µM and 0.28 µM | Nc1ncc(-c2ccc3[nH]ncc3c2)nc1C(=O)NC1C2CC3CC1CC(O)(C3)C2 (stereo not drawn) [compound 13] | Inhibition of CHO viability % Inhibition ± SD at 3.12 μM (CHO-K1 cells): 36 % ± 3; Inhibition of CHO viability % at 3.12 micromolar (CHO-K1 cells; individual values, 3.12 micromolar): 39.6% and 37.7% and 35.3% and 31.4%
– | – | – | – | – | – | – | O=C(NCCCNc1nc(Nc2cccc(NC(=O)N3CCCC3)c2)ncc1I)c1cccs1 [BX795, reference compound] | IC50 [3]: < 1000 nM; IC50 ([1]; Homo sapiens, NHBE, donor #1, representative curve, read-out: IC50): 0.0591 µM; IC50 ([1]; Homo sapiens, NHBE, donor #2, representative curve, read-out: IC50): 0.079 µM; IC50 ([1]; individual values, donor #1, read-out: Inhibition of TSLP production in NHBE (IC50, mM) by BX795, Donor #1): 0.048 µM and 0.059 µM and 0.168 µM and 0.177 µM; IC50 ([1]; individual values, donor #2, read-out: Inhibition of TSLP production in NHBE (IC50, mM) by BX795, Donor #2): 0.198 µM and 0.078 µM and 0.183 µM and 0.143 µM
– | – | – | 0.002 | 0.00097 µM and 0.00482 µM and 0.00467 µM | – | – | COc1ccc(-c2ccc3c(N4CCOC[C@@H]4C)nc(N4CCOC[C@@H]4C)nc3n2)cc1CO [AZD8055, reference compound] | Inhibition of CHO viability % Inhibition ± SD at 3.12 μM (CHO-K1 cells): 20.47% ± 4.6 (n = 4)

SMILES | IC50 (LAD2 cells degranulation; [4]) [µM] | IC50 (LAD2 cells degranulation; [5]) [µM] | IC50 (LAD2 cells degranulation; [6]) [µM] | IC50 [1, 7] [µM] | IC50 [1, 8] | IC50 (Syk; [9]) [µM] | IC50 (Syk; [10]) | further results
COC(=O)Nc1nc2ccc(C(=O)c3cccs3)cc2[nH]1 [Nocodazole, reference compound] | – | – | – | 0.9 | 1.23 µM and 0.512 µM and 1.16 µM | – | – | % Inhibition of mRNA at [4 μM] ± SD ([2]; 4 μM, NHBE donor #1, 6 h stimulation): 84.62 ± 1.76%; % Inhibition of mRNA ([2]; individual values, donor #1): 83.366% and 85.867%
